According to patent US20250108062A1, “VITAMIN NANOCLUSTERS AS THERAPEUTIC AND NUTRACEUTIC AGENTS AND CARRIERS” (FONDAZIONE ISTITUTO ITALIANO DI TECNOLOGIA, priority 2022, published 2025):

System: Bone Marrow Derived Monocytes (BMDM)
Experiment: MTT cell viability / toxicity on BMDMs
Settings: 24, 48, 72 h, all tested concentrations
Experimental: After 24, 48, or 72 h of incubation, the culture medium was removed, a MTT solution was added to each well according to the manufacturer's instruction. The absorbance of formazan crystals dissolved in EtOH was quantified using a microplate spectrophotometer at a wavelength of 570 nm, using 650 nm as the reference wavelength (Tecan, Mannedorf, Swiss). The percentage of cell viability was assessed according to the following equation:
where, Abst was the absorbance of treated cells and Abs, was the absorbance of control (untreated) cells.

C=C1CC[C@H](O)C/C1=C/C=C1\CCC[C@]2(C)[C@@H]([C@H](C)CCCC(C)C)CC[C@@H]12 [free Vitamin D3, Vitamin D3]
cytotoxicity (MTT cell viability): do not induce a significant cytotoxicity
